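Growth conditions: 96-well plates. Treatment: test compound, 48 hours, 5 concentrations. Analysis: linear interpolation between bracketing concentrations; unreached endpoints set to highest concentration. Here, GI50 denotes the concentration required for 50% inhibition of growth. TGI marks complete inhibition of growth.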
Assays:
Assay in all cases: NCI-60 cell line screen, 48 h
786-0 renal = system: 786-0 renal
ACHN renal = system: ACHN renal
CAKI-1 renal = system: CAKI-1 renal
HCC-2998 colon = system: HCC-2998 colon
HCT-116 colon = system: HCT-116 colon
LOX IMVI melanoma = system: LOX IMVI melanoma
MDA-MB-231 breast = system: MDA-MB-231 breast
SR leukemia = system: SR leukemia
U251 CNS = system: U251 CNS
UACC-257 melanoma = system: UACC-257 melanoma

Compound | GI50 (786-0 renal) [µM] | TGI (786-0 renal) [µM] | GI50 (ACHN renal) [µM] | TGI (ACHN renal) [µM] | GI50 (CAKI-1 renal) [µM] | TGI (CAKI-1 renal) [µM] | GI50 (HCC-2998 colon) [µM] | TGI (HCC-2998 colon) [µM] | GI50 (HCT-116 colon) [µM] | TGI (HCT-116 colon) [µM] | GI50 (LOX IMVI melanoma) [µM] | TGI (LOX IMVI melanoma) [µM] | GI50 (MDA-MB-231 breast) [µM] | TGI (MDA-MB-231 breast) [µM] | GI50 (SR leukemia) [µM] | TGI (SR leukemia) [µM] | GI50 (U251 CNS) [µM] | TGI (U251 CNS) [µM] | GI50 (UACC-257 melanoma) [µM] | TGI (UACC-257 melanoma) [µM]
CCCCCCCC/C=C/CCCCCCCC1=NC(C)(C)CN1CC(C)O (centres undefined) | 1.71 | 3.16 | 1.83 | 3.55 | 1.53 | 3 | 4.68 | 9.45 | 1.84 | 3.32 | 1.52 | 2.88 | 1.66 | 3.43 | 0.7 | 2.65 | 1.64 | 3.02 | 1.85 | 3.54
C=C(C)[C@@H]1CC[C@]2(COCCC#N)CC[C@]3(C)[C@H](CC[C@@H]4[C@@](C)(CCCNCCC#N)[C@H](C(=C)C)CC[C@]43C)[C@@H]12 | 10.6 | 30.1 | 13.2 | > 50 | 7.13 | 15.6 | 9.08 | 20.1 | 7.25 | 13.8 | 8.47 | 16.7 | 7.83 | 17.7 | 8.48 | 42.3 | 13.9 | 47.1 | 19.8 | > 50
Cc1cc(Nc2ccc(OCc3ccccc3)cc2)nc2cc(O)ccc12 | 4.51 | 17.2 | 3.41 | 13.3 | 4.88 | 18.3 | 2.41 | 5.18 | 4 | 14.6 | 2.47 | 6.47 | 2.52 | 8.78 | 3.26 | 13.8 | 4.54 | 17.5 | 3.49 | 13.5
NC1=CC(=O)c2cccnc2C1=O | 1.78 | 3.75 | 1.29 | 2.75 | 1.59 | 3.15 | 5.82 | 19.8 | 1.45 | 3.36 | 0.981 | 2.69 | 1.9 | 4.78 | 0.729 | 3.69 | 1.46 | 2.83 | 1.54 | 2.9
O=C(COc1ccc(/C=C2\COc3ccccc3C2=O)cc1)Nc1nccs1 | 13.9 | 28.1 | 16.6 | 42.3 | 7.55 | 20.7 | 0.828 | 3.26 | 3.75 | 12.8 | 2.64 | 7.33 | 17.8 | 60 | 1.31 | 3.23 | 6.29 | 19.1 | 13.3 | 30.6
Cc1cccc(-c2[nH]ncc2-c2ccc3ncccc3n2)n1 | 11.1 | > 25 | 7.1 | > 25 | > 19 | > 25 | > 25 | > 25 | 7.78 | > 25 | 7.56 | > 25 | 14.5 | > 25 | 9.2 | > 25 | 9.54 | > 25 | > 21.3 | > 25
CC12OOC(c3ccccc31)c1c2ccc2ccccc12 (centres undefined) | – | 22.3 | – | 3.51 | – | 4.64 | – | 16.2 | – | 3.21 | – | 6.41 | – | 26.6 | – | 3.24 | – | 28.1 | – | 26.8
OC(c1cc(-c2cccc(Cl)c2)nc2ccccc12)C1CCCCN1 (centres undefined) | 1.84 | 3.47 | 1.64 | 3.13 | 1.24 | 2.72 | 2.09 | 4.15 | 1.75 | 3.38 | 1.76 | 3.36 | 1.66 | 3.37 | 1.27 | 3.8 | 1.66 | 3.05 | 1.85 | 3.33
COc1ccc(N=Cc2c(O)ccc3c2oc2cc(Cl)c(O)c(Cl)c23)cc1 | 19.2 | 52 | 6.22 | 44.4 | 4.75 | 28.1 | 15 | 29.3 | 21 | 56.9 | 15.1 | 53.4 | 14.7 | 48.4 | 10.9 | 51.7 | 5.39 | 34.9 | 15.9 | 48.8
CCOC(=O)c1ccccc1OC(=O)NNc1ccccc1 | 1.18 | > 100 | 0.587 | > 100 | 0.377 | > 100 | 0.583 | – | 1.69 | > 100 | 5 | > 100 | 10.5 | > 100 | 1.47 | > 100 | > 35.6 | > 100 | 5.61 | > 100
CC[C@H](NC(=O)[C@H]1CCCCN1C)C(=O)N(C)[C@H](C[C@@H](OC(C)=O)c1nc(C(=O)N[C@@H](Cc2ccccc2)C[C@H](C)C(=O)O)cs1)C(C)C | 0.00868 | > 14.3 | 0.0142 | > 14.3 | 0.00602 | > 14.3 | 0.0112 | > 14.3 | 0.00366 | > 14.3 | 0.0103 | > 14.3 | 0.008 | > 14.3 | 0.00183 | > 14.3 | 0.0047 | > 14.3 | > 14.3 | > 14.3
N#Cc1c(NC(=O)NCc2ccccc2)sc2c1CCCC2 | 0.822 | > 100 | 0.677 | > 100 | 0.776 | > 100 | 1.72 | > 100 | 0.533 | > 100 | 0.643 | > 100 | 1.73 | > 42.4 | 0.35 | > 100 | 0.66 | > 81.7 | > 71 | > 100
O=C1C(Cl)=C(Sc2nnc3c4ccccc4c4ccccc4c3n2)C(=O)c2ccccc21 | – | 33.9 | – | 29.5 | – | 31.9 | – | 94.2 | – | 33.3 | – | 17.2 | – | 17 | – | > 56 | – | 28.4 | – | 30
COc1cccc(CCC2CCCN(c3cc(C)nc(N)n3)C2)c1 (centres undefined) | 0.526 | 11.9 | 0.625 | 14.1 | 0.385 | 13.4 | 1.54 | 7.52 | 0.484 | 11 | 0.609 | 7.65 | 1.2 | 11.5 | 0.236 | 4.09 | 0.413 | 11.4 | 1.37 | 17.7
O=C(c1ccco1)c1nc2cc(C(F)(F)F)ccc2nc1C(F)(F)F | > 100 | > 100 | > 100 | > 100 | > 100 | > 100 | > 100 | > 100 | > 100 | > 100 | > 100 | > 100 | 99.1 | > 100 | 40.5 | > 100 | > 100 | > 100 | > 100 | > 100
Nc1c(C(=O)c2ccc(-c3cccnc3)cc2)cnn1-c1ccc(F)cc1 | > 18.4 | > 25 | > 10.9 | > 16 | > 25 | > 25 | > 25 | > 25 | > 14 | > 25 | > 25 | > 25 | > 13.1 | > 25 | > 25 | > 25 | > 15.2 | > 25 | > 22.4 | > 25
O=C1CC[C@H](N2C(=O)c3cccc4c(Cc5ccc(CN6CCOCC6)cc5)ccc2c34)C(=O)N1 | > 100 | > 100 | 78.6 | > 100 | 62.1 | > 100 | > 100 | > 100 | 33.6 | > 100 | 26.1 | > 100 | 79.5 | > 100 | 4.03 | > 100 | 60.3 | > 100 | 22.5 | > 100
CCOC(=O)C1=C(C)N=c2s/c(=C\c3ccccc3O)c(=O)n2C1c1ccc(OC)c2ccccc12 (centres undefined) | 2.59 | 10.3 | 3.03 | 8.87 | 10 | 25.9 | 8.43 | 58.1 | 3.26 | 12.1 | 2.44 | 5.65 | 2.69 | 6.79 | 4.4 | 58.8 | 2.35 | 6.58 | 31.8 | > 100
C=C(C)C1CC/C(C)=C/CCC2(C)OC2CC/C(CO)=C\C1O (centres undefined) | – | > 100 | – | > 100 | – | > 100 | – | > 100 | – | > 100 | – | > 100 | – | > 100 | – | > 100 | – | > 100 | – | > 100
Nc1nc2c(ncn2C2CCC(CO)O2)c(=O)n1C(=O)c1ccccc1 (centres undefined) | – | > 100 | – | > 100 | – | > 100 | – | > 100 | – | > 100 | – | > 100 | – | > 100 | – | > 100 | – | > 100 | – | > 100
Cc1cc(Cl)cc2c(N=Nc3ccc(S(N)(=O)=O)cc3)c(O)[nH]c12 | > 25 | > 25 | > 25 | > 25 | > 25 | > 25 | > 25 | > 25 | > 25 | > 25 | > 25 | > 25 | > 25 | > 25 | > 25 | > 25 | > 25 | > 25 | > 25 | > 25
CC1(C)N=C(N)N=C(N)N1c1ccc(CCCCc2ccccc2)c(Cl)c1 | 0.055 | 13.1 | 0.461 | 22.1 | 0.869 | 16.8 | 0.131 | 3.52 | < 0.01 | 1.61 | 0.0131 | 1.52 | 0.444 | 5.85 | 0.0259 | 5.81 | < 0.01 | 1.83 | 0.247 | 5.26

Reference: PubChem BioAssay (NCI)
